Assay results: the supplement of paper PMC10307832

Key:
Assay in all cases: relative viability (nuclei count vs DMSO), 5 days (fraction); higher = more cells survive
IU1-47 + AZD7762 = compound: CC1=CC(=C(N1C2=CC=C(C=C2)Cl)C)C(=O)CN3CCCCC3 [IU1-47] + NC(=O)Nc1cc(-c2cccc(F)c2)sc1C(=O)N[C@H]1CCCNC1 [AZD7762] (partner 0.2 µM)
Procedure, shortened: (§1)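 Values are medians from duplicate plates. Each reflects relative viability, defined as the nuclei count of treated wells over that of vehicle wells. Lung cancer cell lines in 1536-well plates were pin-tool dosed one day after seeding with one drug alone or with a fixed anchor-drug dose plus five library-drug doses (not always all listed) in √10 steps, then fixed, stained and imaged at 4× after 5 days.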

IU1-47 + Tozasertib = compound: CC1=CC(=C(N1C2=CC=C(C=C2)Cl)C)C(=O)CN3CCCCC3 [IU1-47] + Cc1cc(Nc2cc(N3CCN(C)CC3)nc(Sc3ccc(NC(=O)C4CC4)cc3)n2)n[nH]1 [Tozasertib] (partner 0.1 µM)
Procedure, shortened: as §1

IU1-47 + OSI-027 = compound: CC1=CC(=C(N1C2=CC=C(C=C2)Cl)C)C(=O)CN3CCCCC3 [IU1-47] + COc1cccc2cc(-c3nc([C@H]4CC[C@H](C(=O)O)CC4)n4ncnc(N)c34)[nH]c12 [OSI-027] (partner 0.5 µM)
Procedure, shortened: as §1

FG-4592 + Alpelisib = compound: Cc1nc(C(=O)NCC(=O)O)c(O)c2ccc(Oc3ccccc3)cc12 [FG-4592] + Cc1nc(NC(=O)N2CCC[C@H]2C(N)=O)sc1-c1ccnc(C(C)(C)C(F)(F)F)c1 [Alpelisib] (partner 2 µM)
Procedure, shortened: as §1

Cell Line	relative viability (IU1-47 + AZD7762; first compound 0.08 µM)	relative viability (IU1-47 + AZD7762; first compound 0.253 µM)	relative viability (IU1-47 + AZD7762; first compound 0.8 µM)	relative viability (IU1-47 + AZD7762; first compound 2.53 µM)	relative viability (IU1-47 + AZD7762; first compound 8 µM)	relative viability (IU1-47 + Tozasertib; first compound 0.08 µM)	relative viability (IU1-47 + Tozasertib; first compound 0.253 µM)	relative viability (IU1-47 + Tozasertib; first compound 0.8 µM)	relative viability (IU1-47 + Tozasertib; first compound 2.53 µM)	relative viability (IU1-47 + Tozasertib; first compound 8 µM)	relative viability (IU1-47 + OSI-027; first compound 0.08 µM)	relative viability (IU1-47 + OSI-027; first compound 0.253 µM)	relative viability (IU1-47 + OSI-027; first compound 0.8 µM)	relative viability (IU1-47 + OSI-027; first compound 2.53 µM)	relative viability (IU1-47 + OSI-027; first compound 8 µM)	relative viability (FG-4592 + Alpelisib; first compound 0.08 µM)	relative viability (FG-4592 + Alpelisib; first compound 0.253 µM)	relative viability (FG-4592 + Alpelisib; first compound 0.8 µM)	relative viability (FG-4592 + Alpelisib; first compound 2.53 µM)	relative viability (FG-4592 + Alpelisib; first compound 8 µM)
NCI-H2342	0.526	0.588	0.57	0.507	0.486	0.493	0.608	0.602	0.512	0.594	0.668	0.69	0.578	0.517	0.619					
SK-MES-1						1	1.03	0.906	0.868	0.935	0.668	0.674	0.606	0.348	0.509	0.953	0.892	0.85	0.853	0.773
HCC-366	0.281	0.357	0.355	0.267	0.236	0.15	0.217	0.132	0.154	0.112	1.07	0.934	1.17	0.692	1.27	0.285	0.386	0.408	0.377	0.392
201T	0.696	0.592	0.633	0.504	0.78	0.991	0.947	1.05		0.762	0.747	0.784	0.886	0.813	0.832	0.96	0.96	0.879	1.02	1.03
HCC-827	0.174	0.213	0.227	0.202	0.197	0.458	0.424	0.449	0.409	0.383	0.944	0.895	0.85	0.889	0.543	0.948	0.945	0.952	0.951	0.992
NCI-H647	0.551	0.392	0.486	0.386	0.29	0.372	0.309		0.248	0.306	0.744	0.605		0.7	0.478	1.24	1.07	1.17	1.24	0.796
NCI-H2023						0.329	0.363	0.366	0.349	0.291	0.375	0.391	0.436	0.259	0.352	0.683	0.569	0.722	0.631	0.534
NCI-H520						0.429	0.419	0.471	0.461	0.363	0.261	0.27	0.305	0.3	0.206	0.908	0.972	0.952	0.93	0.74
RERF-LC-KJ	1.42	1.17	1.18	0.6	0.823	0.495	0.567	0.522	0.452	0.405	0.596	0.586	0.565	0.36	0.567	0.804	0.749	0.723	0.651	0.774
A-427	0.747	0.908	0.596	0.82	0.562	0.201	0.208	0.236		0.212	0.454	0.472	0.453		0.463	1.04	1.07	1.04	1.13	1.05
NCI-H441	1.38	1.36	1.19	1.18	1.21	0.824	0.713	0.667	0.662	0.544	0.74	0.724	0.572	0.535	0.676	0.849	0.704	0.853	0.878	0.519
NCI-H1703	0.0968	0.172	0.133		0.112											0.255	0.354	0.295	0.326	0.353
NCI-H1792	0.501	0.613	0.643	0.666	0.619						0.816	0.771	0.879	0.566	0.691	0.78	0.635	0.544	0.619	0.721
Calu-6																0.952	0.846	1.12	0.985	0.969
SK-LU-1						0.316	0.361	0.309	0.318	0.292	0.4	0.32	0.309	0.362	0.323	1.02	0.925	1.07		0.917
PC-3 [JPC-3]	0.72	0.856	0.866	0.828	0.741	0.913	0.903	0.922	0.851	0.773	0.796	0.874	0.716	0.705	0.555	0.966	0.972	1.1	1	1.03
EMC-BAC-2	1.1	1.24	1.09	1.07	1.07	0.279	0.305	0.285	0.305	0.271	0.392	0.368	0.374	0.38	0.362	0.745	0.718	0.705	0.764	0.713
LK-2	0.488	0.557	0.542	0.368	0.305	0.163	0.168	0.155	0.168	0.166	0.219	0.199	0.184	0.188	0.184		1.05		0.929	1.03
NCI-H2126	1.01	1.08	1.14	0.712	0.837	0.905	0.866	0.818		0.737	0.729	0.883	0.673	0.539	0.649	0.744	0.787	0.661	0.769	0.69
